Data as given in patent US6858621B2, “2-(quinolonyl)-fused heterocycles as androgen receptor modulators” (Ortho-McNeil Pharmaceutical, Inc., priority 2002, dated 2005).

Target: T1, androgen receptor LBD (Panvera) (Rattus norvegicus, UniProt P15207)
T1 construct: 5 pmol androgen receptor LBD (Panvera); purchased Panvera
T1 sequence (P15207 651-882 limits assumed): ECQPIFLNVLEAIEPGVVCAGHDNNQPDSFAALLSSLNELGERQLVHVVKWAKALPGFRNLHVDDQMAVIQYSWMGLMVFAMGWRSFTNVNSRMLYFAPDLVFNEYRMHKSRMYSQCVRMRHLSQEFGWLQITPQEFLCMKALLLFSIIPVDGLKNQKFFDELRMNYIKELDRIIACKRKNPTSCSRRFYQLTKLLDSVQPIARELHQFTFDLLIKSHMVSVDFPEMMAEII
Assay: Androgen Receptor Filtration Binding Assay (Panvera receptor)
Conditions: Panvera receptor data; 0.5 nM [3H] R1881 tracer
Protocol: In Vitro Assay—Androgen Receptor Filtration Binding Assay
The assay was run on a 96 well plate with each well filled with total reaction volume 150 μL, of a solution containing 5 pmol androgen receptor LBD (Panvera) or […] of freshly prepared rat cytosol, 0.5 nM [^3H] R1881 tracer (NEN), 1.5 μL (10 μM) test compound or vehicle (diluted in 30% DMSO, final concentration of DMSO 0.75%) and […] of TED buffer. (TED buffer contains 10 mM Tris.HCl pH 7.4, 1 mM sodium molybdate (60 mg/250 mL), 1.5 mM EDTA, 1 mM DTT and 10% (v/v) glycerol.)
On day one, the solution containing receptor, tracer and TED buffer was distributed onto a 96 well plate. Diluted test compound or control vehicle was then added to individual wells and the plate incubated ay 4° C. overnight.
On day two, to each well was then added 20 μL human γ-globulin (ICN 823102), prepared at 25 mg/ml in TE pH 8.0 and 55 μL 40% polyethylene glycol 8000 (J T Baker U222-08), prepared in TE pH 8.0. […] The plate wells were then counted on a TopCount (Packard).
Representative compounds of the present invention were tested for binding to the androgen receptor according to the procedure described above with results as listed in Table 3. % Inhibition values less that 0% indicate no binding at the […] level. The negative number(s) are a result of experimental error from the low number of counts detected.

Structure (SMILES)	IC50
O=c1cc(C(F)(F)F)c2c3c(ccc2[nH]1)OCCO3 [compound 1]	5.2 µM
O=c1cc(C(F)(F)F)c2c3c(ccc2[nH]1)OC(F)(F)C(F)(F)O3 [compound 2]	4.8 µM
